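Grown in 96-well plates, cells were treated for 48 hours with each compound at five concentrations. Insufficient inhibition: endpoint recorded as highest concentration tested. At the GI50, growth is halved. The concentration for full growth arrest is given as TGI.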
Key:
Test in all cases: NCI tumour cell line growth inhibition, 48 h
786-0 renal = tested on: 786-0 renal
A498 renal = tested on: A498 renal
A549 NSCLC = tested on: A549 NSCLC
ACHN renal = tested on: ACHN renal
BT-549 breast = tested on: BT-549 breast
CAKI-1 renal = tested on: CAKI-1 renal
CCRF-CEM leukemia = tested on: CCRF-CEM leukemia
COLO 205 colon = tested on: COLO 205 colon
EKVX NSCLC = tested on: EKVX NSCLC
HCC-2998 colon = tested on: HCC-2998 colon
HCT-116 colon = tested on: HCT-116 colon
HCT-15 colon = tested on: HCT-15 colon
HS 578T breast = tested on: HS 578T breast
IGROV1 ovarian = tested on: IGROV1 ovarian
K-562 leukemia = tested on: K-562 leukemia
KM12 colon = tested on: KM12 colon
LOX IMVI melanoma = tested on: LOX IMVI melanoma
M14 melanoma = tested on: M14 melanoma
MCF7 breast = tested on: MCF7 breast
MDA-MB-231 breast = tested on: MDA-MB-231 breast
MDA-MB-435 = tested on: MDA-MB-435
MOLT-4 leukemia = tested on: MOLT-4 leukemia
NCI-H226 lung = tested on: NCI-H226 lung
NCI-H23 lung = tested on: NCI-H23 lung
NCI-H460 lung = tested on: NCI-H460 lung
NCI-H522 lung = tested on: NCI-H522 lung
NCI/ADR-RES ovarian = tested on: NCI/ADR-RES ovarian
OVCAR-3 ovarian = tested on: OVCAR-3 ovarian
OVCAR-5 ovarian = tested on: OVCAR-5 ovarian
OVCAR-8 ovarian = tested on: OVCAR-8 ovarian
PC-3 prostate = tested on: PC-3 prostate
RPMI-8226 leukemia = tested on: RPMI-8226 leukemia
RXF 393 renal = tested on: RXF 393 renal
SF-268 CNS = tested on: SF-268 CNS
SF-295 CNS = tested on: SF-295 CNS
SK-MEL-2 melanoma = tested on: SK-MEL-2 melanoma
SK-MEL-5 melanoma = tested on: SK-MEL-5 melanoma
SK-OV-3 ovarian = tested on: SK-OV-3 ovarian
SN12C renal = tested on: SN12C renal
SNB-19 CNS = tested on: SNB-19 CNS
SR leukemia = tested on: SR leukemia
SW-620 colon = tested on: SW-620 colon
T-47D breast = tested on: T-47D breast
TK-10 renal = tested on: TK-10 renal
U251 CNS = tested on: U251 CNS
UACC-257 melanoma = tested on: UACC-257 melanoma
UACC-62 melanoma = tested on: UACC-62 melanoma
UO-31 renal = tested on: UO-31 renal

For `Oc1ccc(O)c(-c2cn3ccsc3n2)c1`, the GI50 (786-0 renal) was 4.04 µM, the TGI (786-0 renal) was 15 µM and the GI50 (A498 renal) was 47 µM. It also gave a TGI (A498 renal) of 84.5 µM, a GI50 (A549 NSCLC) of 22.9 µM and a TGI (A549 NSCLC) of 48.9 µM. It also gave a GI50 (ACHN renal) of 12.7 µM, a TGI (ACHN renal) of 25.3 µM and a GI50 (BT-549 breast) of 5.61 µM. The TGI (BT-549 breast) was 21 µM, the GI50 (CAKI-1 renal) was 2180 nM and the TGI (CAKI-1 renal) was 4.99 µM. It also gave a GI50 (CCRF-CEM leukemia) of 1590 nM, a TGI (CCRF-CEM leukemia) of 4.23 µM and a GI50 (COLO 205 colon) of 21.4 µM. For the same compound, the TGI (COLO 205 colon) was 48.2 µM, the GI50 (EKVX NSCLC) was 18.4 µM and the TGI (EKVX NSCLC) was 35.8 µM. For the same compound, the GI50 (HCC-2998 colon) was 16.5 µM, the TGI (HCC-2998 colon) was 31.1 µM and the GI50 (HCT-116 colon) was 5.68 µM. For the same compound, the TGI (HCT-116 colon) was 18.3 µM, the GI50 (HCT-15 colon) was 12.3 µM and the TGI (HCT-15 colon) was 24.7 µM. It also gave a GI50 (HS 578T breast) of 30.4 µM, a TGI (HS 578T breast) of 68.7 µM and a GI50 (IGROV1 ovarian) of 15.4 µM. It also gave a TGI (IGROV1 ovarian) of 28.7 µM, a GI50 (K-562 leukemia) of 6.93 µM and a TGI (K-562 leukemia) of 26.1 µM. For the same compound, the GI50 (KM12 colon) was 12.5 µM, the TGI (KM12 colon) was 27.7 µM and the GI50 (LOX IMVI melanoma) was 5.68 µM. For the same compound, the TGI (LOX IMVI melanoma) was 21.3 µM, the GI50 (M14 melanoma) was 15.2 µM and the TGI (M14 melanoma) was 28.5 µM. The GI50 (MCF7 breast) was 5.5 µM, the TGI (MCF7 breast) was 27.2 µM and the GI50 (MDA-MB-231 breast) was 11.7 µM. It also gave a TGI (MDA-MB-231 breast) of 33.7 µM, a GI50 (MDA-MB-435) of 11.2 µM and a TGI (MDA-MB-435) of 23.7 µM. The GI50 (MOLT-4 leukemia) was 2550 nM, the TGI (MOLT-4 leukemia) was 5.42 µM and the GI50 (NCI-H226 lung) was 9.11 µM. The TGI (NCI-H226 lung) was 33.6 µM, the GI50 (NCI-H23 lung) was 16.9 µM and the TGI (NCI-H23 lung) was 64.3 µM. The GI50 (NCI-H460 lung) was 13.6 µM, the TGI (NCI-H460 lung) was 31.4 µM and the GI50 (NCI-H522 lung) was 4.29 µM. The TGI (NCI-H522 lung) was greater than 100 µM, the GI50 (NCI/ADR-RES ovarian) was 12.9 µM and the TGI (NCI/ADR-RES ovarian) was 25.5 µM. The GI50 (OVCAR-3 ovarian) was 7.4 µM, the TGI (OVCAR-3 ovarian) was 20.9 µM and the GI50 (OVCAR-5 ovarian) was 12 µM. The TGI (OVCAR-5 ovarian) was 26.5 µM, the GI50 (OVCAR-8 ovarian) was 19.6 µM and the TGI (OVCAR-8 ovarian) was 67.1 µM. It also gave a GI50 (PC-3 prostate) of 10.1 µM, a TGI (PC-3 prostate) of 21.7 µM and a GI50 (RPMI-8226 leukemia) of 1730 nM. It also gave a TGI (RPMI-8226 leukemia) of 7.82 µM, a GI50 (RXF 393 renal) of 14.5 µM and a TGI (RXF 393 renal) of 29.6 µM. It also gave a GI50 (SF-268 CNS) of 14.4 µM, a TGI (SF-268 CNS) greater than 100 µM and a GI50 (SF-295 CNS) of 13.6 µM. The TGI (SF-295 CNS) was 51.2 µM, the GI50 (SK-MEL-2 melanoma) was 50.4 µM and the TGI (SK-MEL-2 melanoma) was greater than 100 µM. It also gave a GI50 (SK-MEL-5 melanoma) of 12.7 µM, a TGI (SK-MEL-5 melanoma) of 25.2 µM and a GI50 (SK-OV-3 ovarian) of 19.1 µM. The TGI (SK-OV-3 ovarian) was 51.6 µM, the GI50 (SN12C renal) was 12.2 µM and the TGI (SN12C renal) was 26.9 µM. It also gave a GI50 (SNB-19 CNS) of 20.9 µM, a TGI (SNB-19 CNS) of 49.7 µM and a GI50 (SR leukemia) of 1480 nM. For the same compound, the TGI (SR leukemia) was 4.43 µM, the GI50 (SW-620 colon) was 7.1 µM and the TGI (SW-620 colon) was 19.1 µM. The GI50 (T-47D breast) was 19.7 µM, the TGI (T-47D breast) was 40.6 µM and the GI50 (TK-10 renal) was 21.3 µM. For the same compound, the TGI (TK-10 renal) was 47.9 µM, the GI50 (U251 CNS) was 15.8 µM and the TGI (U251 CNS) was 33.7 µM. The GI50 (UACC-257 melanoma) was 24.3 µM, the TGI (UACC-257 melanoma) was 50.3 µM and the GI50 (UACC-62 melanoma) was 10.8 µM. For the same compound, the TGI (UACC-62 melanoma) was 29.9 µM, the GI50 (UO-31 renal) was 12.6 µM and the TGI (UO-31 renal) was 25.2 µM.

Source: PubChem BioAssay (NCI)
